Measured values as given in US12502380B2, “MrgprX2 antagonists for the treatment of inflammatory disorders” (Dermira, Inc., priority 2019, dated 2025).

Biological target: T1, Human MrgprX2 (Homo sapiens, UniProt Q96LB1)
T1 construct: expressed in transfected cells
T1 sequence (Q96LB1 1-330): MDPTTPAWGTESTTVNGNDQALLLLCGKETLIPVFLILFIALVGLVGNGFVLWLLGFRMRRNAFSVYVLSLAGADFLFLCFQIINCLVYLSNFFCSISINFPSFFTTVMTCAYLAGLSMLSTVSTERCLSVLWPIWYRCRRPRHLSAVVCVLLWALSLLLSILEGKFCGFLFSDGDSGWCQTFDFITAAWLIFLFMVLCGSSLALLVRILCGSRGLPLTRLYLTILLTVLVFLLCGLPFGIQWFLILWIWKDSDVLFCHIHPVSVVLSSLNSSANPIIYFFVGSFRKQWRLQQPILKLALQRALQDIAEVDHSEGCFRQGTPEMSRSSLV
Experiment: Human MrgprX2 antagonist FLIPR intracellular calcium mobilization assay
Type: cell-based
Settings: antagonist activity, recombinant hMrgpMRGPRX2 expressing cells, read-out: Human MrgprX2 Antagonist pIC50 (converted)
Source text: Potent and selective hMrgpMRGPRX2 compounds have been generated from compounds identified during a high throughput screening (HTS) campaign and followed up with cycles of structure activity based medicinal chemistry efforts. These compounds were characterized in recombinant hMrgpMRGPRX2 expressing cells for their antagonist activity and the potency was confirmed in the human mast cell line LAD-2, where the target is endogenously expressed. The assays used to determine potencies are functional read-out looking at intracellular calcium mobilization using the FLIPR™ technology. In these FLIPR assays, we test the identified compounds using recombinant cellular systems expressing mouse MrgprB2, mouse MrgprA1, gerbil MrgpMRGPRX2 orthologue, Chinese hamster MrgpMRGPRX2 orthologue and cynomolgus monkey MrgpMRGPRX2 orthologue, respectively for orthologue activity.

Row | IC50 [nM] | Compound
1 | 158 | CC1(C(=O)Nc2ncc(Cc3cccc(F)c3F)s2)CCOCC1 [Compound E095]
2 | 50.1 | CC1(C(=O)Nc2ncc(Cc3cc(F)ccc3F)s2)COC1 [Compound E096]
3 | 2000 | CC1(C(=O)Nc2ncc(CC3CCCC3)s2)CCOCC1 [Compound E097]
4 | 3.16 | CCN(C[C@H](C)O)C(=O)Nc1ncc(Cc2cccc(Cl)c2)s1 [Compound E098, 3-[5-[(3-chlorophenyl)methyl]thiazol-2-yl]-1-ethyl-1-[(2S)-2-hydroxypropyl]urea]
5 | 398 | CC(O)CN(C)C(=O)Nc1ncc(Cc2ccccc2F)s1 (stereo not shown) [Compound E099]
6 | 251 | C[C@@H](O)CN(C)C(=O)Nc1ncc(Cc2cccc(F)c2)s1 [Compound E100]
7 | 39.8 | C[C@H](O)CN(C)C(=O)Nc1ncc(Cc2cccc(F)c2)s1 [Compound E101]
8 | 251 | C[C@H](O)CN(C)C(=O)Nc1ncc(Cc2ccccc2F)s1 [Compound E102]
9 | 1260 | C[C@@H](O)CN(C)C(=O)Nc1ncc(Cc2ccccc2F)s1 [Compound E103]
10 | 316 | O=C(Nc1ncc(Cc2cccc(F)c2)s1)N1CCCC1CO (stereo not shown) [Compound E104]
11 | 15.8 | CN(CC(O)C(F)(F)F)C(=O)Nc1ncc(Cc2cccc(F)c2)s1 (stereo not shown) [Compound E105]
12 | 3160 | CN(CC(O)CO)C(=O)Nc1ncc(Cc2cccc(F)c2)s1 (stereo not shown) [Compound E106]
13 | 3980 | C[C@H]1CN(C(=O)Nc2ncc(Cc3cccc(F)c3)s2)CCO1 [Compound E107]
14 | 1.58 | CN(CC(C)(C)O)C(=O)Nc1ncc(Cc2cccc(F)c2)s1 [Compound E108]
15 | 25.1 | CN(C[C@H](O)C(F)(F)F)C(=O)Nc1ncc(Cc2cccc(F)c2)s1 [Compound E109]
16 | 0.501 | CCN(CC(C)O)C(=O)Nc1ncc(Cc2cccc(F)c2)s1 (stereo not shown) [Compound E110]
17 | 3.16 | CN(C[C@@H](O)C(F)(F)F)C(=O)Nc1ncc(Cc2cccc(F)c2)s1 [Compound E111]

Row | IC50 [nM] | Compound
18 | 794 | O=C(Nc1ncc(Cc2cccc(F)c2)s1)N1CC[C@H](CO)C1 [Compound E112]
19 | 794 | O=C(Nc1ncc(Cc2cccc(F)c2)s1)N1CC[C@@H](CO)C1 [Compound E113]
20 | 794 | CC(O)CN(C(=O)Nc1ncc(Cc2cccc(F)c2)s1)C1CC1 (stereo not shown) [Compound E114]
21 | 251 | CCN(CCO)C(=O)Nc1ncc(Cc2cccc(F)c2)s1 [Compound E115]
22 | 31.6 | C[C@H](O)CN(C)C(=O)Nc1ncc(Cc2cccc(Cl)c2)s1 [Compound E116]
23 | 0.631 | CCN(C[C@H](C)O)C(=O)Nc1ncc(Cc2cccc(F)c2)s1 [Compound E117]
24 | 25.1 | CCN(C[C@@H](C)O)C(=O)Nc1ncc(Cc2cccc(F)c2)s1 [Compound E118]
25 | 200 | CC(O)CN(CC(F)(F)F)C(=O)Nc1ncc(Cc2cccc(F)c2)s1 (stereo not shown) [Compound E119]
26 | 398 | O=C(Nc1ncc(Cc2cccc(F)c2)s1)N1CCC[C@H]1CO [Compound E120]
27 | 39.8 | O=C(Nc1ncc(Cc2cccc(F)c2)s1)N1CCC[C@@H]1CO [Compound E121]
28 | 6.31 | CN(CC1(O)CC1)C(=O)Nc1ncc(Cc2cccc(F)c2)s1 [Compound E122]
29 | 7940 | O=C(Nc1ncc(Cc2cccc(F)c2)s1)N1CCOC[C@H]1CO [Compound E123]
30 | 794 | O=C(Nc1ncc(Cc2cccc(F)c2)s1)N1CCOC[C@@H]1CO [Compound E124]
31 | 7.94 | CC(C)CN(C)C(=O)Nc1ncc(Cc2cccc(F)c2)s1 [Compound E125]
32 | 631 | O=C(Nc1ncc(Cc2cccc(F)c2)s1)N1CCC1CO (stereo not shown) [Compound E126]
33 | 39.8 | O=C(Nc1ncc(Cc2cccc(F)c2)s1)N1CC(F)(F)C[C@@H]1CO [Compound E127]

Further lines, the compound ahead of its results:

Row | Compound | IC50 [nM]
34 | CC(=O)N1CCC(C)(C(=O)Nc2ncc(Cc3ccccc3F)s2)CC1 [Compound E059, 1-acetyl-N-[5-[(2-fluorophenyl)methyl]thiazol-2-yl]-4-methyl-piperidine-4-carboxamide] | 3160
35 | CC1(C(=O)Nc2ncc(Cc3ccccc3F)s2)CCN(S(C)(=O)=O)CC1 [Compound E060, N-[5-[(2-fluorophenyl)methyl]thiazol-2-yl]-4-methyl-1-methylsulfonyl-piperidine-4-carboxamide] | 2510
36 | C[C@]1(C(=O)Nc2ncc(Cc3cccc(F)c3)s2)CCCN1 [Compound E061, (2R)—N-[5-[(3-fluorophenyl)methyl]thiazol-2-yl]-2-methyl-pyrrolidine-2-carboxamide] | 2000
37 | NS(=O)(=O)N1CCC[C@H]1C(=O)Nc1ncc(Cc2cccc(F)c2)s1 [Compound E062] | 3980
38 | C[C@]1(C(=O)Nc2ncc(Cc3cccc(F)c3)s2)CCCN1S(N)(=O)=O [Compound E063] | 3.16
39 | CC1(C(=O)Nc2ncc(Cc3ccccc3F)s2)CCN(S(N)(=O)=O)C1 (stereo not shown) [Compound E064] | 631
40 | NS(=O)(=O)N1CC[C@@H]1C(=O)Nc1ncc(Cc2cccc(F)c2)s1 [Compound E065] | 79.4
41 | NS(=O)(=O)N1CCCC[C@@H]1C(=O)Nc1ncc(Cc2cccc(F)c2)s1 [Compound E066] | 31.6
42 | CN(CC(=O)Nc1ncc(Cc2cccc(F)c2)s1)S(N)(=O)=O [Compound E067] | 10000
43 | C[C@H](C(=O)Nc1ncc(Cc2cccc(F)c2)s1)N(C)S(N)(=O)=O [Compound E068] | 631
44 | CC[C@H](C(=O)Nc1ncc(Cc2cccc(F)c2)s1)N(C)S(N)(=O)=O [Compound E069] | 1580
45 | CC1(C(=O)Nc2ncc(Oc3cccc(F)c3)s2)CCOCC1 [Compound E070, N-[5-(3-fluorophenoxy)thiazol-2-yl]-4-methyl-tetrahydropyran-4-carboxamide] | 5.01
46 | CC(C)C(=O)Nc1ncc(Oc2cccnc2)s1 [Compound E071] | 6310
47 | CC(C)C(=O)Nc1ncc(Nc2ccccc2)s1 [Compound E072] | 1260
48 | CC(C)C(=O)Nc1ncc(N(C)c2ccccc2)s1 [Compound E073] | 1580
49 | CC(C)C(=O)Nc1ncc(Oc2ccc(F)cc2)s1 [Compound E074] | 10
50 | CC(C)C(=O)Nc1ncc(Oc2ccccc2F)s1 [Compound E075] | 31.6

Row | Compound | IC50 [nM]
51 | CC(C)C(=O)Nc1ncc(Oc2cccc(F)c2)s1 [Compound E076] | 1.26
52 | CC1(C(=O)Nc2ncc(Oc3ccc(F)cc3)s2)CCOCC1 [Compound E077] | 39.8
53 | CC1(C(=O)Nc2ncc(Oc3cccc(F)c3)s2)CCOC1 (stereo not shown) [Compound E078, N-[5-(3-fluorophenoxy)thiazol-2-yl]-3-methyl-tetrahydrofuran-3-carboxamide] | 2.51
54 | CC1(C(=O)Nc2ncc(Oc3cccc(Cl)c3)s2)CCOCC1 [Compound E079] | 3.98
55 | CC1(C(=O)Nc2ncc(Oc3cncc(F)c3)s2)CCOCC1 [Compound E080] | 501
56 | CC(C)C(=O)Nc1nc(C#N)c(Oc2ccc(F)cc2)s1 [Compound E081] | 2510
57 | CC(C)(C)OC(=O)N1CCC[C@@H]1C(=O)Nc1ncc(Oc2ccccc2)s1 [Compound E082, tert-butyl (2R)-2-[(5-phenoxythiazol-2-yl)carbamoyl]pyrrolidine-1-carboxylate] | 1260
58 | O=C(Nc1ncc(Oc2ccccc2)s1)[C@H]1CCCN1 [Compound E085, (2R)—N-(5-phenoxythiazol-2-yl)pyrrolidine-2-carboxamide] | 2510
59 | NS(=O)(=O)N1CCC[C@@H]1C(=O)Nc1ncc(Oc2ccccc2)s1 [Compound E086, (2R)—N-(5-phenoxythiazol-2-yl)-1-sulfamoyl-pyrrolidine-2-carboxamide] | 15.8
60 | CN1CCC[C@@H]1C(=O)Nc1ncc(Oc2ccc(C#N)cc2)s1 [Compound E087, (2R)—N-[5-(4-cyanophenoxy)thiazol-2-yl]-1-methyl-pyrrolidine-2-carboxamide] | 2510
61 | CCN1CCC[C@@H]1C(=O)Nc1ncc(Oc2ccc(C#N)cc2)s1 [Compound E088, (2R)—N-[5-(4-cyanophenoxy)thiazol-2-yl]-1-ethyl-pyrrolidine-2-carboxamide] | 3160
62 | NS(=O)(=O)N1CCC[C@@H]1C(=O)Nc1ncc(Oc2ccc(F)cc2)s1 [Compound E089, (2R)—N-[5-(4-fluorophenoxy)thiazol-2-yl]-1-sulfamoyl-pyrrolidine-2-carboxamide] | 25.1
63 | N#Cc1cc(F)cc(Oc2cnc(NC(=O)[C@H]3CCCN3S(N)(=O)=O)s2)c1 [Compound E090, (2R)—N-[5-(3-cyano-5-fluoro-phenoxy)thiazol-2-yl]-1-sulfamoyl-pyrrolidine-2-carboxamide] | 31.6
64 | N#Cc1ccc(Oc2cnc(NC(=O)[C@H]3CCCN3S(N)(=O)=O)s2)cc1 [Compound E091, (2R)—N-[5-(4-cyanophenoxy)thiazol-2-yl]-1-sulfamoyl-pyrrolidine-2-carboxamide] | 1580
65 | CC1(C(=O)Nc2ncc(Cc3cc(F)ccc3F)s2)CCOCC1 [Compound E092, N-[5-[(2,5-difluorophenyl)methyl]thiazol-2-yl]-4-methyl-tetrahydropyran-4-carboxamide] | 100
66 | CC(C)C(=O)Nc1ncc(Cc2cc(F)ccc2F)s1 [Compound E093] | 6.31
67 | CC(C)C(=O)Nc1ncc(Cc2cccc(F)c2F)s1 [Compound E094] | 7.94
